The record followed here is publication PMC6744473, “Structure of the thermo-sensitive TRP channel TRP1 from the alga Chlamydomonas reinhardtii” (Nature Communications, 2019).

Assay [1] addresses T1, crTRP1 (Chlamydomonas reinhardtii, UniProt Q0Z852).
T1 construct: HEK 293S GnTI-; purified in GDN or LMNG; homotetramer; from primer N-terminus MKVAPAPASGQP, C-terminus TAAAGH before the tag
T1 sequence (Q0Z852 1-901): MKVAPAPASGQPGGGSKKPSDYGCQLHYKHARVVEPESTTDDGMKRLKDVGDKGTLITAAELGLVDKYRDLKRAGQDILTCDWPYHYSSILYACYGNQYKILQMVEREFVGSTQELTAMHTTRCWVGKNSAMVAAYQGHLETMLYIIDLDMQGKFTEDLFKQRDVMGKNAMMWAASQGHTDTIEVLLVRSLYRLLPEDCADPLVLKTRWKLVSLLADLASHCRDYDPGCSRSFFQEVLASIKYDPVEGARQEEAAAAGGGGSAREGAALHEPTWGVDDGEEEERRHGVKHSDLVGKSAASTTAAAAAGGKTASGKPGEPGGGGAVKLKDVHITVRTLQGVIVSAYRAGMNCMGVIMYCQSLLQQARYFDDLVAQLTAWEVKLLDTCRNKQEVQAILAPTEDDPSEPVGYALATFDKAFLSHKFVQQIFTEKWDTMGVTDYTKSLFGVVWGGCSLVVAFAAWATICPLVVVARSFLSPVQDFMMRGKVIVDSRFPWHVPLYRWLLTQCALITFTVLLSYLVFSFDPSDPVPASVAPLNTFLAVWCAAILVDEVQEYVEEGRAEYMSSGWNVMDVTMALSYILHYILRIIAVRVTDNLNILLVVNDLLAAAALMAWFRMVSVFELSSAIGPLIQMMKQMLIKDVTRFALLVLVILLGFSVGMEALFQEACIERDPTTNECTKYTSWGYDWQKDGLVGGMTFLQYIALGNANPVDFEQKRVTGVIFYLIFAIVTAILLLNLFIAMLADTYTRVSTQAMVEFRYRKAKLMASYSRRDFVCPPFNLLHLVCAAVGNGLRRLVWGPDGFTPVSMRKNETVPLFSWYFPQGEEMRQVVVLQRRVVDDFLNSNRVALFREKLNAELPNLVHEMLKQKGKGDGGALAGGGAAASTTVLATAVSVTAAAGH
The assay can be described thus: planar lipid bilayer single-channel recording. It is filed as biochemical. The note with it: inhibitor 10 µM; 2.5 µM PIP2, 28 °C, +120 mV.

Assay [2] deals with T2, crTRP1 (Chlamydomonas reinhardtii, UniProt Q0Z852).
T2 construct: HEK 293S GnTI-; purified in GDN or LMNG; homotetramer; from primer N-terminus MKVAPAPASGQP, C-terminus TAAAGH before the tag
Put plainly: planar lipid bilayer single-channel recording. The note with it: activator test; deletion borders not given, only primers; loss of activation. It is filed as biochemical.

Assay [3] concerns the target T1, crTRP1. Put plainly: planar lipid bilayer single-channel recording. It is filed as biochemical. The note with it: activator 2.5 µM; POPG/POPC/POPE bilayer, pH 7.2, 28 °C; diC8 form added to both compartments.
The target of assay [4] is transient receptor potential (TRP) channel crTRP1 from Chlamydomonas reinhardtii (Chlamydomonas reinhardtii). Put plainly: cryo-EM structure; crTRP1 in detergent GDN (20 mM Tris pH 8.0, 150 mM NaCl, 0.01% GDN, 1 mM BME, 10 mM TCEP added); grids frozen at 4 °C; 3.53 Å; self-association: homotetramer.
For assay [5] the target is unchanged. Put plainly: cryo-EM structure; crTRP1 in MSP2N2 nanodiscs (POPC:POPE 3:1; 150 mM KCl, 20 mM Hepes pH 7.4, 1 µM CaCl2, 20 µM MgCl2, no detergent); grids frozen at 22 °C; 3.45 Å; C2 symmetry; self-association: homotetramer.

Counter-ions that a name gives are not always drawn.

Consider `CC(C)(C)c1ccc(NC(=O)N2CCN(c3ncccc3Cl)CC2)cc1` [BCTC, N-(4-tertiarybutylphenyl)-4-(3-cholorphyridin-2-yl)tetrahydropyrazine-1(2 H)-carbox-amide], for which the “Po change at 10 μM” value on crTRP1 [1] is recorded as “BCTC) strongly suppressed crTRP1-mediated currents (Fig. 1g, h)”.

For the compound `CCCCCCCC(=O)OC[C@H](COP(=O)(O)O[C@@H]1[C@H](O)[C@H](O)[C@@H](OP(=O)(O)O)[C@H](OP(=O)(O)O)[C@H]1O)OC(=O)CCCCCCC` [PIP2, 1-(1,2R-dioctanoylphosphatidyl)inositol-4,5-bisphosphate, trisodium salt], the “planar lipid bilayer single-channel recording” value was “deleting the entire pre-S1 elbow resulted in a greatly reduced Po and loss of activation by PIP2” at crTRP1 [2]; “Addition of PIP2 readily evoked channel openings” at crTRP1 [3]. As for “transient receptor potential (TRP) channel crTRP1 from Chlamydomonas reinhardtii (natural protein)”, the stoichiometry N in assay [4] and in assay [5] was 4 throughout.
